Converted amounts (≈) assume the structure as drawn.
What was measured:
[1] = test system: Staphylococcus aureus (Smith) ATCC 19636; test: MIC determination, S. aureus; assay type: cell-based; settings: S. aureus ATCC 19636, 17 h; for MIC: Staphylococcus aureus, ATCC19636
Method: (§1) Susceptibility testing for bacterial cultures is performed according to the National Council for Clinical Laboratory Standards (NCCLS) protocol M100-S12, “Performance Standards for Antimicrobial Susceptibility Testing.” The bacterial strains recommended by NCCLS were obtained from the American Type Culutre Collection (ATCC) (Table) and were maintained on Mueller Hinton (MHA) agar plates plus or minus 3% lysed horse blood (see Table). The bacteria were grown in Cation adjusted Mueller Hinton Broth (CaMHB) for liquid growth and susceptibility testing. S. cerevisiae (yeast) is grown in yeast peptone dextrose (YPD) media.
(§2) All bacterial cultures were grown at 37 degrees Celsius. Fresh colonies of S. aureus and MRSA were inoculated into liquid media and grown overnight and diluted the next day to grow to mid-log (Table 2). E. faecalis and S. pneumonia mid-log cultures were started directly from colony on plates. To attain mid-log growth, cultures were grown to an optical density (OD) at A590 of 0.2-0.8 (see Table 2) and then diluted to proper OD to obtain 5×10^5 cells/mL.
(§3) Diluted bacterial cultures are added to compound plates with compound diluted 2-fold from 100 μg/mL to 0.2 μg/mL final concentration in DMSO. Control antibiotics are also added: vancomycin, linezolid, and penicillin. In 384 well plates, 0.5 μL compound is added followed by addition of 50 μL of culture. DMSO alone is included as a control. Plates incubated at 37 degrees Celsius for 17-24 h.
(§4) Plates with cells mixed with compounds are incubated for 17 h for S. aureus and yeast, 24 h for MRSA, and all Enterococcus and Streptococcus strains. Yeast plates are incubated […].
(§5) Viability is determined by reading plates at A590 to determine optical density of treated and untreated cells and determining growth inhibition relative to controls.

[2] = test system: Methicillin resistant S. aureus ATCC 33591; test: MIC determination, MRSA; assay type: cell-based, Staphylococcus aureus; settings: MRSA ATCC 33591, 24 h; for MIC: Staphylococcus aureus
Method: as §1, §2, §3, §4, §5

[3] = test system: Penicillin-res. S. pneumonia ATCC 700671; test: MIC determination, PRSP; assay type: cell-based, Streptococcus pneumonia; settings: ATCC 700671, 24 h; for MIC: Streptococcus pneumoniae
Method: as §1, §2, §3, §4, §5

[4] = test system: Streptococcus pneumonia ATCC 49619; test: MIC determination, S. pneumonia; assay type: cell-based; settings: for MIC S. pneuomiae: ATCC 49619, 24 h
Method: as §1, §2, §3, §4, §5

COc1ccc2[nH]cc(CCNC(=O)C3C(CO)C(C(C)O)ON3Cc3ccc(C#Cc4ccc(C)cc4)cc3)c2c1 (stereo not shown)
MIC S. aureus [1]: ** (the MIC is 5-90 μg/mL) | MIC MRSA [2]: * (the MIC is >90 μg/mL) | MIC PRSP [3]: ** (the MIC is 5-90 μg/mL)

Cc1ccc(C#Cc2ccc(CN3O[C@@H]([C@@H](C)O)[C@@H](CN(C)C)[C@H]3C(=O)NCCc3c[nH]c4ccccc34)cc2)cc1
MIC [1]: < 5 µg/mL | MIC [2]: < 5 µg/mL | MIC [3]: 5 to 90 µg/mL (≈ 8.85 to 159 µM)

Cc1ccc(CCc2ccc(CN3OC(C(C)O)C(CO)C3C(=O)NCCc3c[nH]c4ccccc34)cc2)cc1 (stereo not shown)
MIC S. aureus [1]: *** (the MIC is less than 5 μg/mL) | MIC MRSA [2]: *** (the MIC is less than 5 μg/mL) | MIC S. pneuomiae [4]: ** (the MIC is 5-90 μg/mL) | MIC PRSP [3]: ** (the MIC is 5-90 μg/mL)

Cc1ccc(C#Cc2ccc(CN3OC[C@H](CN(C)C)[C@H]3C(=O)NCCc3c[nH]c4ccccc34)cc2)cc1
MIC [1]: 5 to 90 µg/mL (≈ 9.6 to 173 µM) | MIC [2]: 5 to 90 µg/mL (≈ 9.6 to 173 µM) | MIC [3]: 5 to 90 µg/mL (≈ 9.6 to 173 µM)

Cc1ccc(C#Cc2ccc(CN3O[C@@H]([C@@H](C)O)[C@@H](CN(C)C)[C@@H]3C(=O)NCCc3c[nH]c4ccccc34)cc2)cc1.Cl
MIC [1]: 5 to 90 µg/mL | MIC [2]: 5 to 90 µg/mL | MIC [3]: 5 to 90 µg/mL

Cc1ccc(C#Cc2ccc(CN3OC(CO)CC3C(=O)NCCc3c[nH]c4ccccc34)cc2)cc1 (stereo not shown)
MIC [1]: 5 to 90 µg/mL (≈ 10.1 to 182 µM) | MIC [2]: 5 to 90 µg/mL (≈ 10.1 to 182 µM) | MIC [3]: 5 to 90 µg/mL (≈ 10.1 to 182 µM)

CC(O)C1ON(Cc2ccc(-c3ccc(Oc4ccccc4)cc3)cc2)C(C(=O)NCCc2c[nH]c3ccccc23)C1CO (stereo not shown)
MIC S. aureus [1]: ** (the MIC is 5-90 μg/mL) | MIC MRSA [2]: ** (the MIC is 5-90 μg/mL) | MIC PRSP [3]: ** (the MIC is 5-90 μg/mL)

CC(O)C1ON(Cc2ccc(CCc3ccc(Cl)cc3)cc2)C(C(=O)NCCc2c[nH]c3ccccc23)C1CO (stereo not shown)
MIC S. aureus [1]: ** (the MIC is 5-90 μg/mL) | MIC MRSA [2]: ** (the MIC is 5-90 μg/mL) | MIC S. pneuomiae [4]: ** (the MIC is 5-90 μg/mL) | MIC PRSP [3]: ** (the MIC is 5-90 μg/mL)

Cc1ccc(C#Cc2ccc(CN3OC4CNCC4C3C(=O)NCCc3c[nH]c4ccccc34)cc2)cc1 (stereo not shown)
MIC [1]: 5 to 90 µg/mL (≈ 9.91 to 178 µM) | MIC [2]: 5 to 90 µg/mL (≈ 9.91 to 178 µM) | MIC ([4]; Streptococcus pneumoniae, ATCC49619, 24 h, read-out: MIC S. pneuomiae): 5 to 90 µg/mL (≈ 9.91 to 178 µM) | MIC [3]: 5 to 90 µg/mL (≈ 9.91 to 178 µM)

CC(O)C1ON(Cc2cccc(-c3ccc(Cl)cc3)c2)C(C(=O)NCCc2c[nH]c3ccccc23)C1CO (stereo not shown)
MIC S. aureus [1]: ** (the MIC is 5-90 μg/mL) | MIC MRSA [2]: ** (the MIC is 5-90 μg/mL) | MIC PRSP [3]: ** (the MIC is 5-90 μg/mL)

Cc1ccc(C#Cc2ccc(CN3OC(C(C)O)C(CO)C3CNCCc3c[nH]c4ccccc34)cc2)cc1 (stereo not shown)
MIC S. aureus [1]: ** (the MIC is 5-90 μg/mL) | MIC MRSA [2]: ** (the MIC is 5-90 μg/mL) | MIC PRSP [3]: * (the MIC is >90 μg/mL)

Cc1ccc(C#Cc2ccc(CC3O[C@H]([C@@H](C)O)[C@H](CO)[C@@H]3C(=O)NCCc3nc4ccccc4[nH]3)cc2)cc1 (stereo partly shown)
MIC [1]: 5 to 90 µg/mL (≈ 9.3 to 167 µM) | MIC [2]: 5 to 90 µg/mL (≈ 9.3 to 167 µM) | MIC [3]: 5 to 90 µg/mL (≈ 9.3 to 167 µM)

Cc1ccc(C=Cc2ccc(CN3OC(C(C)O)C(CO)C3C(=O)NCCc3c[nH]c4ccccc34)cc2)cc1 (stereo not shown)
MIC S. aureus [1]: ** (the MIC is 5-90 μg/mL) | MIC MRSA [2]: ** (the MIC is 5-90 μg/mL) | MIC S. pneuomiae [4]: ** (the MIC is 5-90 μg/mL) | MIC PRSP [3]: ** (the MIC is 5-90 μg/mL)

CC(O)C1ON(CCCCCCc2ccccc2)C(C(=O)NCCc2c[nH]c3ccccc23)C1CO (stereo not shown)
MIC S. aureus [1]: ** (the MIC is 5-90 μg/mL) | MIC MRSA [2]: ** (the MIC is 5-90 μg/mL) | MIC PRSP [3]: ** (the MIC is 5-90 μg/mL)

CC(O)C1ON(Cc2ccc(-c3ccccc3)cc2)C(C(=O)NCCc2c[nH]c3ccccc23)C1CO (stereo not shown)
MIC S. aureus [1]: ** (the MIC is 5-90 μg/mL) | MIC MRSA [2]: ** (the MIC is 5-90 μg/mL) | MIC PRSP [3]: * (the MIC is >90 μg/mL)

Source: patent US20060020004A1, “Isoxazolidine compounds for treatment of bacterial infections” (Infinity Pharmaceuticals, Inc., priority 2004, published 2006)
